Data as given in patent publication US20100132066A1, “AGROBACTERIUM-MEDIATED METHOD FOR PRODUCING TRANSFORMED PLANT WITHOUT SELECTION STEP” (JAPAN TOBACCO INC., priority 2007, published 2010).

Key:
[1] = tested on: Maize (variety: A188) immature embryos; test: Regeneration of whole plants from immature embryos cultured on coculture medium supplemented with various types of auxin (Example 1); assay type: cell-based; settings: auxin 1.5 mg/l in coculture medium; for Regeneration rate (%): 7 days, no selection step, LSZ medium 30 mg/l hygromycin about 2 weeks, LBA4404 (pSB134), 25 immature embryos; for Vigor: mean score 0-3 of regenerated plants, 2 weeks on regeneration medium
Text: As used herein, the term “vigor” is intended to mean the growth vigor of a regenerated plant. The vigor of a plant may be measured by any known technique used in the art. For example, in the case of maize, scoring may be performed as follows for each transformed plant tissue after the regeneration step: transformed plant tissue showing no regeneration=0, transformed plant tissue giving a regenerated shoot whose maximum length is less than 5 mm=1, transformed plant tissue giving a regenerated shoot whose maximum length is 5 mm to less than 2 cm=2, and transformed plant tissue giving a regenerated shoot whose maximum length is 2 cm or longer=3, followed by calculating a mean value for all transformed plant tissues to thereby determine their vigor. The method of evaluation of vigor is not limited to this technique, and appropriate modifications may be made to well-known techniques, e.g., depending on the type of target to be evaluated.
25 immature embryos were provided for each test. The bar graph (vertical axis on the left side) represents the vigor of regenerated plants, the line graph (vertical axis on the right side) represents the regeneration rate (calculated by dividing the number of immature embryos showing regeneration in each test by the number of inoculated immature embryos), and the horizontal axis represents the type of auxin contained in a coculture medium. The auxin concentration in the coculture medium was set to 1.5 mg/l for each test. The vigor of regenerated plants was evaluated by scoring as follows: immature embryo showing no regeneration=0, immature embryo giving a regenerated shoot whose maximum length is less than 5 mm=1, immature embryo giving a regenerated shoot whose maximum length is 5 mm to less than 2 cm=2, and immature embryo giving a regenerated shoot whose maximum length is 2 cm or longer=3.
Maize (variety: A188) immature embryos (1.0 to 1 5 mm in size) at 7 to 14 days after pollination were aseptically collected and washed once with LS-inf liquid medium (Non-patent Publication No. 11), followed by pretreatment (thermal treatment at 46° C. for 3 minutes and centrifugation at 15,000 rpm for 10 minutes) to increase gene transfer efficiency. In LS-inf liquid medium containing 100 μM acetosyringone, Agrobacterium strain LBA4404 (pSB134) (Non-patent Publication No. 27) was suspended at about 1.0×10^9 cfu/ml to prepare an inoculum. The thermally-treated and centrifuged immature embryos were mixed with the inoculum, vortexed for 30 seconds, and then allowed to stand for 5 minutes at room temperature.
The number of immature embryos which regenerated into whole plants was determined, and the regenerated plants were examined for their vigor.

[2] = tested on: Immature embryos (variety: A188); test: Effect of dicamba and 2,4-D in coculture medium on regeneration (Example 2, FIG. 3); assay type: cell-based, Maize; settings: for vigor of regenerated plants: mean score 0-3, coculture medium with this auxin alone (1.5 mg/l), selection step eliminated, FIG. 3
Text: FIG. 3 is a graph showing the effects of the dicamba/2,4-D ratio on the plant regeneration rate from cocultured immature embryos and on the vigor of regenerated plants. 38 immature embryos were provided for each test. The bar graph (vertical axis on the left side) represents the vigor of regenerated plants, the line graph (vertical axis on the right side) represents the regeneration rate (calculated by dividing the number of immature embryos showing regeneration in each test by the number of inoculated immature embryos), and the horizontal axis represents the percentage of dicamba contained in a coculture medium. The numerical values on the horizontal axis mean that auxin is contained in the coculture medium at the following ratios: 0 mg/l dicamba+1.5 mg/l 2,4-D (0% dicamba), 0.375 mg/l dicamba+1.125 mg/l 2,4-D (25% dicamba), 0.75 mg/l dicamba+0.75 mg/l 2,4-D (50% dicamba), 1.125 mg/l dicamba+0.375 mg/l 2,4-D (75% dicamba), and 1.5 mg/l dicamba+0 mg/l 2,4-D (100% dicamba). The vigor of regenerated plants was evaluated by scoring as follows: immature embryo showing no regeneration=0, immature embryo giving a regenerated shoot whose maximum length is less than 5 mm=1, immature embryo giving a regenerated shoot whose maximum length is 5 mm to less than 2 cm=2, and immature embryo giving a regenerated shoot whose maximum length is 2 cm or longer=3.
The vector U0009B shown in FIG. 2 and SEQ ID NO: 1 was constructed by adding necessary elements to a vector having pSB11 (Non-patent Publication No. 28) as a skeletal structure. […] The number of immature embryos which regenerated into whole plants was determined, and the regenerated plants were examined for their vigor.

[3] = tested on: Immature embryos (variety: A188); test: Transformation efficiency with regeneration medium containing blasticidin S (Example 4); assay type: cell-based, Maize; settings: for Number of immature embryos Regenerated: about 2 weeks, 46 inoculated
[4] = higher percentage of dicamba (0-100%, rest 2,4-D, total 1.5 mg/l) in coculture medium
[5] = 2 mg/l blasticidin S in regeneration medium

O=C(O)COc1ccc(Cl)cc1Cl [2,4-D, 2,4-dichlorophenoxyacetic acid]
Regeneration rate (%) [1]: 84.0% | vigor of regenerated plants [2]: 0.3

COc1c(Cl)ccc(Cl)c1C(=O)O [Dicamba, 3,6-dichloro-o-anisic acid]
Regeneration rate (%) [1]: 100% | Vigor [1]: 1.5 | growth of the regenerated plants [2, 4]: more vigorous growth | regeneration rate [2, 4]: higher regeneration rate | vigor of regenerated plants [2]: 2.3

CN(CC[C@H](N)CC(=O)N[C@H]1C=C[C@H](n2ccc(N)nc2=O)O[C@@H]1C(=O)O)C(=N)N [blasticidin, blasticidin S]
GUS− [3, 5]: 12 | Number of immature embryos GUS+ (B) [3, 5]: 19 | Striped, dotted (C) [3, 5]: 14 | Number of immature embryos Regenerated [3, 5]: 45 | Number of immature embryos Regenerated ([3]; 2 mg/l blasticidin S in regeneration medium, listed as blasticidin S): Almost all | B/A (%) ([3]; 2 mg/l blasticidin S, GUS+ per inoculated embryos): 41.3% | C/A (%) ([3]; 2 mg/l blasticidin S, striped/dotted per inoculated embryos): 3.04%

Nc1c(Cl)c(Cl)nc(C(=O)O)c1Cl [Picloram, 4-amino-3,5,6-trichloropicolinic acid]
Regeneration rate (%) [1]: 76.4% | Vigor [1]: 1.2

O=C(O)COc1cc(Cl)c(Cl)cc1Cl [2,4,5-T, 2,4,5-trichlorophenoxyacetic acid]
Regeneration rate (%) [1]: 84.0% | Vigor [1]: 1.5

O=C(O)c1cc(I)cc(I)c1I [TIBA, 2,3,5-triiodobenzoic acid]
Regeneration rate (%) [1]: 4.0% | Vigor [1]: 0.1
